From US20190152957A1, “PYRIDIN-3-YL ACETIC ACID DERIVATIVES AS INHIBITORS OF HUMAN IMMUNODEFICIENCY VIRUS REPLICATION” (ViiV HEALTHCARE UK (NO.5) LIMITED, priority 2016, published 2019)

Tested on: recombinant NL-RLuc virus (HIV NL4-3 with Renilla Luciferase gene) in MT-2 cells
Assay: Inhibition of HIV replication (NL-RLuc virus, luciferase readout in MT-2 cells)
Assay type: cell-based
Conditions: MT2, 120 h, read-out: Activity
Description: Inhibition of HIV Replication:
A recombinant NL-RLuc proviral clone was constructed in which a section of the nef gene from NL4-3 was replaced with the Renilla Luciferase gene. This virus is fully infectious and can undergo multiple cycles of replication in cell culture. In addition, the luciferous reporter provides a simple and easy method for quantitating the extent of virus growth and consequently, the antiviral activity of test compounds. The plasmid pNLRLuc contains the proviral NL-Rluc DNA cloned into pUC18 at the PvuII site. The NL-RLuc virus was prepared by transfection of 293T cells with the plasmid pNLRLuc. Transfections were performed using the LipofectAMINE PLUS kit from Invitrogen (Carlsbad, Calif.) according to the manufacturer and the virus generated was titered in MT-2 cells. For susceptibility analyses, the titrated virus was used to infect MT-2 cells in the presence of compound, and after 5 days of incubation, cells were processed and quantitated for virus growth by the amount of expressed luciferase. Assay media was RPMI 1640 supplemented with 10% heat inactivated fetal bovine serum (FBS), 100 units/ml penicillin G/100 units/ml streptomycin, 10 mM HEPES buffer pH 7.55 and 2 mM L-glutamine. The results from at least 2 experiments were used to calculate the EC50 values. Luciferase was quantitated using the Dual Luciferase kit from Promega (Madison, Wis.). Susceptibility of viruses to compounds was determined by incubation in the presence of serial dilutions of the compound. The 50% effective concentration (EC50) was calculated by using the exponential form of the median effect equation where (Fa)=1/[1+(ED50/drug conc.)^m](Johnson V A, Byington R T. Infectivity Assay. In Techniques in HIV Research. ed. Aldovini A, Walker BD. 71-76. New York: Stockton Press. 1990). Activity equal to A refers to a compound having an EC50≤100 nM, while B and C denote compounds having an EC50 between 100 nM and 1 uM (B) or >1 uM (C).

Row | SMILES | EC50 [µM]
1 | Cc1cccc(-n2cc(CN3CCc4cc(-c5c(C)nc(C)c([C@H](OC(C)(C)C)C(=O)O)c5N5CCC(C)(C)CC5)ccc4C3)cn2)c1 [Compound 41, (S)-2-(tert-butoxy)-2-(4-(4,4-dimethylpiperidin-1-yl)-2,6-dimethyl-5-(2-((1-(m-tolyl)-1H-pyrazol-4-yl)methyl)-1,2,3,4-tetrahydroisoquinolin-6-yl)pyridin-3-yl)acetic acid] | < 0.1
2 | Cc1nc(C)c([C@H](OC(C)(C)C)C(=O)O)c(N2CCC(C)(C)CC2)c1-c1ccc2c(c1)CCN(Cc1ccn[nH]1)C2 [Compound 26, (S)-2-(5-(2-((1H-pyrazol-5-yl)methyl)-1,2,3,4-tetrahydroisoquinolin-6-yl)-4-(4,4-dimethylpiperidin-1-yl)-2,6-dimethylpyridin-3-yl)-2-(tert-butoxy)acetic acid] | < 0.1
3 | Cc1nc(CN2CCc3cc(-c4c(C)nc(C)c([C@H](OC(C)(C)C)C(=O)O)c4N4CCC(C)(C)CC4)ccc3C2)c[nH]1 [Compound 43, (S)-2-(tert-butoxy)-2-(4-(4,4-dimethylpiperidin-1-yl)-2,6-dimethyl-5-(2-((2-methyl-1H-imidazol-4-yl)methyl)-1,2,3,4-tetrahydroisoquinolin-6-yl)pyridin-3-yl)acetic acid] | < 0.1
4 | Cc1ncsc1CN1CCc2cc(-c3c(C)nc(C)c([C@H](OC(C)(C)C)C(=O)O)c3N3CCC(C)(C)CC3)ccc2C1 [Compound 8, (S)-2-(tert-butoxy)-2-(4-(4,4-dimethylpiperidin-1-yl)-2,6-dimethyl-5-(2-((4-methylthiazol-5-yl)methyl)-1,2,3,4-tetrahydroisoquinolin-6-yl)pyridin-3-yl)acetic acid] | < 0.1
5 | Cc1nc(C)c([C@H](OC(C)(C)C)C(=O)O)c(N2CCC(C)(C)CC2)c1-c1ccc2c(c1)CCN(CC1C[C@@H]3CC[C@H]1C3)C2 (stereo partly drawn) [Compound 2, (2S)-2-(5-(2-((1S,4R)-bicyclo[2.2.1]heptan-2-ylmethyl)-1,2,3,4-tetrahydroisoquinolin-6-yl)-4-(4,4-dimethylpiperidin-1-yl)-2,6-dimethylpyridin-3-yl)-2-(tert-butoxy)acetic acid] | < 0.1
6 | Cc1nc(C)c([C@H](OC(C)(C)C)C(=O)O)c(N2CCC(C)(C)CC2)c1-c1ccc2c(c1)CCN(Cc1c[nH]nn1)C2 [Compound 27, (S)-2-(5-(2-((1H-1,2,3-triazol-4-yl)methyl)-1,2,3,4-tetrahydroisoquinolin-6-yl)-4-(4,4-dimethylpiperidin-1-yl)-2,6-dimethylpyridin-3-yl)-2-(tert-butoxy)acetic acid] | 0.1 to 1
7 | Cc1nc(C)c([C@H](OC(C)(C)C)C(=O)O)c(N2CCC(C)(C)CC2)c1-c1ccc2c(c1)CCN(Cc1cnn(-c3ccc(F)cc3)c1)C2 [Compound 19, (S)-2-(tert-butoxy)-2-(4-(4,4-dimethylpiperidin-1-yl)-5-(2-((1-(4-fluorophenyl)-1H-pyrazol-4-yl)methyl)-1,2,3,4-tetrahydroisoquinolin-6-yl)-2,6-dimethylpyridin-3-yl)acetic acid] | < 0.1
8 | Cc1nc(C)c([C@H](OC(C)(C)C)C(=O)O)c(N2CCC(C)(C)CC2)c1-c1ccc2c(c1)CCN(Cc1cscn1)C2 [Compound 10, (S)-2-(tert-butoxy)-2-(4-(4,4-dimethylpiperidin-1-yl)-2,6-dimethyl-5-(2-(thiazol-4-ylmethyl)-1,2,3,4-tetrahydroisoquinolin-6-yl)pyridin-3-yl)acetic acid] | < 0.1
9 | CCc1ncc(CN2CCc3cc(-c4c(C)nc(C)c([C@H](OC(C)(C)C)C(=O)O)c4N4CCC(C)(C)CC4)ccc3C2)[nH]1 [Compound 21, (S)-2-(tert-butoxy)-2-(4-(4,4-dimethylpiperidin-1-yl)-5-(2-((2-ethyl-1H-imidazol-5-yl)methyl)-1,2,3,4-tetrahydroisoquinolin-6-yl)-2,6-dimethylpyridin-3-yl)acetic acid] | > 1
10 | Cc1nc(C)c([C@H](OC(C)(C)C)C(=O)O)c(N2CCC(C)(C)CC2)c1-c1ccc2c(c1)CCN(Cc1ccc(=O)[nH]c1)C2 [Compound 52, (S)-2-(tert-butoxy)-2-(4-(4,4-dimethylpiperidin-1-yl)-2,6-dimethyl-5-(2-((6-oxo-1,6-dihydropyridin-3-yl)methyl)-1,2,3,4-tetrahydroisoquinolin-6-yl)pyridin-3-yl)acetic acid] | 0.1 to 1
11 | Cc1nc(C)c([C@H](OC(C)(C)C)C(=O)O)c(N2CCC(C)(C)CC2)c1-c1ccc2c(c1)CCN(Cc1[nH]nnc1[Si](C)(C)C)C2 [Compound 51, (S)-2-(tert-butoxy)-2-(4-(4,4-dimethylpiperidin-1-yl)-2,6-dimethyl-5-(2-((4-(trimethylsilyl)-1H-1,2,3-triazol-5-yl)methyl)-1,2,3,4-tetrahydroisoquinolin-6-yl)pyridin-3-yl)acetic acid] | < 0.1
12 | Cc1cc(CN2CCc3cc(-c4c(C)nc(C)c([C@H](OC(C)(C)C)C(=O)O)c4N4CCC(C)(C)CC4)ccc3C2)[nH]n1 [Compound 42, (S)-2-(tert-butoxy)-2-(4-(4,4-dimethylpiperidin-1-yl)-2,6-dimethyl-5-(2-((3-methyl-1H-pyrazol-5-yl)methyl)-1,2,3,4-tetrahydroisoquinolin-6-yl)pyridin-3-yl)acetic acid] | < 0.1
13 | CCOc1ncccc1CN1CCc2cc(-c3c(C)nc(C)c([C@H](OC(C)(C)C)C(=O)O)c3N3CCC(C)(C)CC3)ccc2C1 [Compound 29, (S)-2-(tert-butoxy)-2-(4-(4,4-dimethylpiperidin-1-yl)-5-(2-((2-ethoxypyridin-3-yl)methyl)-1,2,3,4-tetrahydroisoquinolin-6-yl)-2,6-dimethylpyridin-3-yl)acetic acid] | < 0.1
14 | Cc1nc(C)c([C@H](OC(C)(C)C)C(=O)O)c(N2CCC(C)(C)CC2)c1-c1ccc2c(c1)CCN(Cc1nnn[nH]1)C2 [Compound 46, (S)-2-(5-(2-((1H-tetrazol-5-yl)methyl)-1,2,3,4-tetrahydroisoquinolin-6-yl)-4-(4,4-dimethylpiperidin-1-yl)-2,6-dimethylpyridin-3-yl)-2-(tert-butoxy)acetic acid] | < 0.1

Same assay, conditions: MT2, 120 h, read-out: EC50 μM

Row | SMILES | EC50 [µM]
15 | Cc1ncsc1CN1CCc2cc(-c3c(C)nc(C)c([C@H](OC(C)(C)C)C(=O)O)c3N3CCC(C)(C)CC3)ccc2C1 [Compound 8, (S)-2-(tert-butoxy)-2-(4-(4,4-dimethylpiperidin-1-yl)-2,6-dimethyl-5-(2-((4-methylthiazol-5-yl)methyl)-1,2,3,4-tetrahydroisoquinolin-6-yl)pyridin-3-yl)acetic acid] | 0.002
16 | CCc1ncc(CN2CCc3cc(-c4c(C)nc(C)c([C@H](OC(C)(C)C)C(=O)O)c4N4CCC(C)(C)CC4)ccc3C2)[nH]1 [Compound 21, (S)-2-(tert-butoxy)-2-(4-(4,4-dimethylpiperidin-1-yl)-5-(2-((2-ethyl-1H-imidazol-5-yl)methyl)-1,2,3,4-tetrahydroisoquinolin-6-yl)-2,6-dimethylpyridin-3-yl)acetic acid] | 1.54
